Data reported in ChEMBL document CHEMBL5465560, “Selectivity Literature for EUbOPEN Chemogenomic Library” (2024).

Key:
[1] = biological target: Leukocyte tyrosine kinase receptor (Homo sapiens, UniProt P29376); assay: Selectivity interaction (KinomeScan (DiscoverX)) EUB0000229b LTK; conditions: at 10 µM
[2] = biological target: Myosin light chain kinase, smooth muscle (Homo sapiens, UniProt Q15746); assay: Selectivity interaction (Upstate Kinase Profiler service (Millipore)) EUB0000056c MYLK; conditions: at 1 µM
[3] = biological target: Ribosomal protein S6 kinase alpha-4 (Homo sapiens) (UniProt O75676); assay: Selectivity interaction (Kinase panel (KiNativ target engagement assay in Jurkat cells)) EUB0001635a RPS6KA4; type: cell-based; conditions: Selectivity number of off-targets 0.0, Selectivity number of targets 233.0, Source Knowledge https://www.sciencedirect.com/science/article/pii/S2451945619300674?via%3Dihub, at 1 µM
[4] = biological target: Serine/threonine-protein kinase RIO2 (Homo sapiens) (UniProt Q9BVS4); conditions: at 10 µM
[5] = biological target: T1, Protein kinase C iota type (Homo sapiens) (UniProt P41743); assay: Selectivity interaction (ActivX KiNativ screen (kinase selectivity in THP-1 cell lysates)) EUB0000639a PRKCI; type: subcellular; conditions: lysate, at 0.2 µM
T1 sequence (whole entry): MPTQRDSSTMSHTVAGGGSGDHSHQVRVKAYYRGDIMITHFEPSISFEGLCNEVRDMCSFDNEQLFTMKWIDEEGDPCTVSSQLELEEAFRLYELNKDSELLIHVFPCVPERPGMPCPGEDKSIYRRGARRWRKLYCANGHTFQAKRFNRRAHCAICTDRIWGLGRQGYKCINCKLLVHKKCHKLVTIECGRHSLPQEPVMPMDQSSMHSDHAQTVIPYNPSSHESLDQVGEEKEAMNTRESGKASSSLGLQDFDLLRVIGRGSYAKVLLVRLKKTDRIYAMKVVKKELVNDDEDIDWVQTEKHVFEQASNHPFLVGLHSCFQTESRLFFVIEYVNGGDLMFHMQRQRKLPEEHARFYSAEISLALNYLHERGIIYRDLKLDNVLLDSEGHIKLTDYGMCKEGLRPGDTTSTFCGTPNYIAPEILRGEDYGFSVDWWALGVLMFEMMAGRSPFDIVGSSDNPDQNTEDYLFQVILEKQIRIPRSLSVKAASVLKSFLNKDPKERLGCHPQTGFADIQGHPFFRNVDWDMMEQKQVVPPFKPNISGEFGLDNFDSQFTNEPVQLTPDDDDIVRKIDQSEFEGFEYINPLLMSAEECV

[6] = biological target: 5'-AMP-activated protein kinase catalytic subunit alpha-1 (Homo sapiens, UniProt Q13131); assay: Selectivity interaction (ActivX KiNativ screen (kinase selectivity in THP-1 cell lysates)) EUB0000639a PRKAA1; type: subcellular; conditions: lysate, at 0.04 µM
[7] = biological target: T2, Tyrosine-protein kinase JAK3 (Homo sapiens) (UniProt P52333); assay: Selectivity interaction (KinomeScan (DiscoverX)) EUB0000695a JAK3; conditions: at 100 nM
T2 sequence (whole entry): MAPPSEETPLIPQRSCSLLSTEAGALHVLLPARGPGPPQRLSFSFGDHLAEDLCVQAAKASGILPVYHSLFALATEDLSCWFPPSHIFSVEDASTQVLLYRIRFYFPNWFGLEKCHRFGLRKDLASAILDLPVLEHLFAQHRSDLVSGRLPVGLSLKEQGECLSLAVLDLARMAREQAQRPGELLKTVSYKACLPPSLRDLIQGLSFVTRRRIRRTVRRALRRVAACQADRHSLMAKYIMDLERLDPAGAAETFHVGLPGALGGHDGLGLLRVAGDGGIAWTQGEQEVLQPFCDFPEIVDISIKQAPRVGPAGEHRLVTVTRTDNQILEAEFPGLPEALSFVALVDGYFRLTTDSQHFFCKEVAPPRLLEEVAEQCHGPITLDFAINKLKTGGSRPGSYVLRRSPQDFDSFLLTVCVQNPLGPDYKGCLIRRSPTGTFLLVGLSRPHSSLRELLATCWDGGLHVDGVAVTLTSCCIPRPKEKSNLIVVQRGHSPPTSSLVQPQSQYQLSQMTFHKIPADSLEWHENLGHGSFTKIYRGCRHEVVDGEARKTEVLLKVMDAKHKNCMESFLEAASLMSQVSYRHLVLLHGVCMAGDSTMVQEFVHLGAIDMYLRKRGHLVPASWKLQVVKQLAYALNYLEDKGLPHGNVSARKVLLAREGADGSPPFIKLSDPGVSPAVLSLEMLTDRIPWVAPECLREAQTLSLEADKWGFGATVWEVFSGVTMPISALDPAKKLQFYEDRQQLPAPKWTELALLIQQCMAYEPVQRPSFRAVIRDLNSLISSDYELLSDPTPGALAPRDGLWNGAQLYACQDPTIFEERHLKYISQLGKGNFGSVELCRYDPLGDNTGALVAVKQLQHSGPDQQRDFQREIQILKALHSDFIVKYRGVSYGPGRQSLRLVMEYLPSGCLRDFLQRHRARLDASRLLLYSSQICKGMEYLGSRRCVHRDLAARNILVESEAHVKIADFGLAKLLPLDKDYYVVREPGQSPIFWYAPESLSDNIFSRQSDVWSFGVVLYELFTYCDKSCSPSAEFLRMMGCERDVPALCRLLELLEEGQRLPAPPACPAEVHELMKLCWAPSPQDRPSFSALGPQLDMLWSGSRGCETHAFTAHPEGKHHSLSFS

[8] = biological target: T3, Lymphokine-activated killer T-cell-originated protein kinase (Homo sapiens) (UniProt Q96KB5); assay: Selectivity interaction (Kinase panel (literature)) EUB0001199aCl PBK; conditions: at 1 µM
T3 sequence (whole entry): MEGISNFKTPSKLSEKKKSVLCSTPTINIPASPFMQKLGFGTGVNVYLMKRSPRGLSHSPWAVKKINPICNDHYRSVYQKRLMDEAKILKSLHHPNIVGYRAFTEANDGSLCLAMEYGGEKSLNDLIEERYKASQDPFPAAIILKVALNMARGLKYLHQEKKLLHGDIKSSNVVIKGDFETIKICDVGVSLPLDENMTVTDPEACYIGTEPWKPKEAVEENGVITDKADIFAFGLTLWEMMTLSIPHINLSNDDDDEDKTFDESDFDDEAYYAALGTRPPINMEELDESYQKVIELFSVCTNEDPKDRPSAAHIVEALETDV

[9] = biological target: Calcium/calmodulin-dependent protein kinase type II subunit alpha (Homo sapiens, UniProt Q9UQM7); assay: Selectivity interaction (Kinase panel (literature)) EUB0001199aCl CAMK2A; conditions: at 1 µM
Misshapen-like kinase 1 = Misshapen-like kinase 1 (Homo sapiens, UniProt Q8N4C8); assay: Selectivity interaction (Ambit KINOMEscan and KiNATiv profiling in Jurkat cells) EUB0000090b MINK1; type: cell-based; conditions: at 1 µM
[10] = biological target: N-lysine methyltransferase SMYD2 (Homo sapiens) (UniProt Q9NRG4); conditions: at 1 µM
[11] = biological target: Serine/threonine-protein kinase 10 (Homo sapiens) (UniProt O94804); assay: Selectivity interaction (ActivX KiNativ screen (ex vivo kinase selectivity in human PBMCs)) EUB0001619a STK10; type: cell-based; conditions: PBMC, at 1 µM
Chain of Serine/threonine-protein kinase 10 (Homo sapiens) (O94804 whole entry, looked up): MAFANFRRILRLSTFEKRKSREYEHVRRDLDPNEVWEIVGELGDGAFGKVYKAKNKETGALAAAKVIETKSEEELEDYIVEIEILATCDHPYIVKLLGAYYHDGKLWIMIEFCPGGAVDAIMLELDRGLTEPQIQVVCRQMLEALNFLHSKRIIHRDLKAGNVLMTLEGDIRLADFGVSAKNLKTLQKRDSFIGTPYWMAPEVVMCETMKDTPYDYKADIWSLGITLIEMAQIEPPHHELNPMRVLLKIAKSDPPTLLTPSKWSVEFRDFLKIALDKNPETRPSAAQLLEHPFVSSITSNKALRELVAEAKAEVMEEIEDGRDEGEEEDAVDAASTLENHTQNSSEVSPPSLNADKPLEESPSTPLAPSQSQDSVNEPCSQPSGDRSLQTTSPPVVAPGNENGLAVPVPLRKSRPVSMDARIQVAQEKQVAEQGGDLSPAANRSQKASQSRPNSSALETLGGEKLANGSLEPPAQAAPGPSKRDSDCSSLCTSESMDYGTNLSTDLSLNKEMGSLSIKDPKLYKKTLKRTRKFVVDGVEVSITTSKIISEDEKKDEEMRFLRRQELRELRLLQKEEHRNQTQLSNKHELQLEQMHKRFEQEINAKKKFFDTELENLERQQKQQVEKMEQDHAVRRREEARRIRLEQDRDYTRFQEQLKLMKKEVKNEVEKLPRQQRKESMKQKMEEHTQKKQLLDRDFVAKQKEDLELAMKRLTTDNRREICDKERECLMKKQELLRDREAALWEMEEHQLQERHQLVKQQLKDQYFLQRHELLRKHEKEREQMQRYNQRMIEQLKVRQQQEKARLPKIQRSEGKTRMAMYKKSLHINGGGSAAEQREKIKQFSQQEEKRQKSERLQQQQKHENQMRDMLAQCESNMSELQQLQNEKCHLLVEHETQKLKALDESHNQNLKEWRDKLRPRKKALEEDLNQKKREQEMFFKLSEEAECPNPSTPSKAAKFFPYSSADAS

Chain of Misshapen-like kinase 1 (Q8N4C8 whole entry, looked up): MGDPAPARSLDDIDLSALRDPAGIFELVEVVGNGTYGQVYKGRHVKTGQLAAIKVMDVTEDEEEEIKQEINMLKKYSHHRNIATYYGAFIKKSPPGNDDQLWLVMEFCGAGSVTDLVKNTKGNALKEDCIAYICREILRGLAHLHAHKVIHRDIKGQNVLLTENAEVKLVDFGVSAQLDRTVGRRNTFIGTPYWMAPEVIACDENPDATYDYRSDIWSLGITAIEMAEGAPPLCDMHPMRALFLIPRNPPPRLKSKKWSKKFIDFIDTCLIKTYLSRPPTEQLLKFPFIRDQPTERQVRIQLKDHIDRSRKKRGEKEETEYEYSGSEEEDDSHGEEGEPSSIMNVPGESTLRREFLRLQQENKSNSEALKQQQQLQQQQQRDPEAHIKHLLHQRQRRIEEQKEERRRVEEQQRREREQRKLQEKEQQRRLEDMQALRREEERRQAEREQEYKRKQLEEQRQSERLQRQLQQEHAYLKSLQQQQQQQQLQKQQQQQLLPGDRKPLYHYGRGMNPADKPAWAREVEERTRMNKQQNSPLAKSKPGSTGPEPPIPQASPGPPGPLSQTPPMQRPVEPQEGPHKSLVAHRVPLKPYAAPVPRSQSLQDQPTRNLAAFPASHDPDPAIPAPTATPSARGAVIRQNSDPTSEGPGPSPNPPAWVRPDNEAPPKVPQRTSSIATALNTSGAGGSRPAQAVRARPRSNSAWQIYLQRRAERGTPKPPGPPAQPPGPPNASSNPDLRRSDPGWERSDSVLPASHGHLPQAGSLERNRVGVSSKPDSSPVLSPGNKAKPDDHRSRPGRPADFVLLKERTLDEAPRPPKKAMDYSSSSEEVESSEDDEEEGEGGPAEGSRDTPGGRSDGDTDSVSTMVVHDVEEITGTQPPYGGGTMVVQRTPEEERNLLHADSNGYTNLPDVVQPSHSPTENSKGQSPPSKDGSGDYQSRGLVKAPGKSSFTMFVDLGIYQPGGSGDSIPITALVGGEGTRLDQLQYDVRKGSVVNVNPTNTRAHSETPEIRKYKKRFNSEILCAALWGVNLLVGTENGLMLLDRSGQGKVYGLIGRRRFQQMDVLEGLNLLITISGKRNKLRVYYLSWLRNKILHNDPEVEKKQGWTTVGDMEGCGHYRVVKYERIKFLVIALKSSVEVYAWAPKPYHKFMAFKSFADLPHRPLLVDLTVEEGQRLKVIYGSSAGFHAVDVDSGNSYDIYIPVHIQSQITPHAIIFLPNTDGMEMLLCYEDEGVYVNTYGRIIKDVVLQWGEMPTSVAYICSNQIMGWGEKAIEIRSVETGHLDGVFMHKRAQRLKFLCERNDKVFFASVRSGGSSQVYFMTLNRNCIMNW
Chain of 5'-AMP-activated protein kinase catalytic subunit alpha-1 (Q13131 whole entry, looked up): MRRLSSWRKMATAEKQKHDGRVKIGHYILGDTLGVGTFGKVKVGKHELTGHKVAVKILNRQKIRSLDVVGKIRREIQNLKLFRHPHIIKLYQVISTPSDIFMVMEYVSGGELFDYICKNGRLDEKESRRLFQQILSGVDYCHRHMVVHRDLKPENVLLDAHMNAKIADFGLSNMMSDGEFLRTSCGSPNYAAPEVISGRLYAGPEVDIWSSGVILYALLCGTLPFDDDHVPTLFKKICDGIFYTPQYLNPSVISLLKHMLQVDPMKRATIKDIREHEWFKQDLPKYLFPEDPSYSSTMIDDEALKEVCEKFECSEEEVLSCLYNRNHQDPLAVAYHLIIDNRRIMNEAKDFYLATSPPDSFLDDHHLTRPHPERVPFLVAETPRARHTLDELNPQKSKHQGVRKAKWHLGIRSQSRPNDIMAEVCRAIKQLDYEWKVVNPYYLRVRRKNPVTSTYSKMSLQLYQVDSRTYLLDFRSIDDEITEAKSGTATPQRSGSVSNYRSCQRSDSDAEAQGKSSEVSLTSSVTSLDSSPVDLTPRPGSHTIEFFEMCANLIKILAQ
Chain of Leukocyte tyrosine kinase receptor (P29376 whole entry): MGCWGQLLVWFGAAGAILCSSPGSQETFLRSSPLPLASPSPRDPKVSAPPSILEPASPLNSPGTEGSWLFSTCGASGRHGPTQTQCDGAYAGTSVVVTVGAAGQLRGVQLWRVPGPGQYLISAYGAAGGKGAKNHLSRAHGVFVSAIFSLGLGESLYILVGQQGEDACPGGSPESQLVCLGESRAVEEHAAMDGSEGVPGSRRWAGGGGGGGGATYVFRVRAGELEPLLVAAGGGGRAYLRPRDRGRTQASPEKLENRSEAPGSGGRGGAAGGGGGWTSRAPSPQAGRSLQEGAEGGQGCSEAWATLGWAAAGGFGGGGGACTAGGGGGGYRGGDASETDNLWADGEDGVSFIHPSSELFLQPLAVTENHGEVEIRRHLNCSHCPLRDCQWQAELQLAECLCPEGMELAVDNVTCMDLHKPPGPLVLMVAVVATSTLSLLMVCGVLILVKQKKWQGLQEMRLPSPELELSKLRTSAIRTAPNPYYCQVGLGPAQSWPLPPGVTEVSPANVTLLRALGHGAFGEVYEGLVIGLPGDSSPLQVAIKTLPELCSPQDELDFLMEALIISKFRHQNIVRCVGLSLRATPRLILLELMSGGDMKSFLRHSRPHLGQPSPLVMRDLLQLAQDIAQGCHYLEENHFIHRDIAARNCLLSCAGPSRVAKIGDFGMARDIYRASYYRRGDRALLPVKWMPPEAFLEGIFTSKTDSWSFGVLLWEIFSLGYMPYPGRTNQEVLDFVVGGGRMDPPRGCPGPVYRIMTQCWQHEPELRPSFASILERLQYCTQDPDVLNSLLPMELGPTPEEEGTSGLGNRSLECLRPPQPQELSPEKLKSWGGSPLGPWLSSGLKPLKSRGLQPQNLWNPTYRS
Chain of Serine/threonine-protein kinase RIO2 (Homo sapiens) (Q9BVS4 whole entry, looked up): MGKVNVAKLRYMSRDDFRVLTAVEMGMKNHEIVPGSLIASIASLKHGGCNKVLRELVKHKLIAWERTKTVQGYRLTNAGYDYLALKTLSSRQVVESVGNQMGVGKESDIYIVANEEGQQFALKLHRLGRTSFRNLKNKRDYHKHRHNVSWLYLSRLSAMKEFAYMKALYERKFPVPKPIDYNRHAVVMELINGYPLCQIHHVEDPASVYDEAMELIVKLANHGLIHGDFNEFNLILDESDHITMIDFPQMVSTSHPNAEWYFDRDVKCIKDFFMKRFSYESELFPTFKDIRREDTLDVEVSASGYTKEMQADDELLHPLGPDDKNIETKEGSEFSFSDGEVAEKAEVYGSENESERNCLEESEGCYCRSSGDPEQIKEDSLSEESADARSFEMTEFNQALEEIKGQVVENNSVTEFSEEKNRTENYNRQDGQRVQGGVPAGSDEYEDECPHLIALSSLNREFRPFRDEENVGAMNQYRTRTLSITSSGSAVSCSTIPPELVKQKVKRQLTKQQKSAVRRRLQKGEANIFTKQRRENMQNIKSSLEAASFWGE
Chain of Ribosomal protein S6 kinase alpha-4 (Homo sapiens) (O75676 whole entry, looked up): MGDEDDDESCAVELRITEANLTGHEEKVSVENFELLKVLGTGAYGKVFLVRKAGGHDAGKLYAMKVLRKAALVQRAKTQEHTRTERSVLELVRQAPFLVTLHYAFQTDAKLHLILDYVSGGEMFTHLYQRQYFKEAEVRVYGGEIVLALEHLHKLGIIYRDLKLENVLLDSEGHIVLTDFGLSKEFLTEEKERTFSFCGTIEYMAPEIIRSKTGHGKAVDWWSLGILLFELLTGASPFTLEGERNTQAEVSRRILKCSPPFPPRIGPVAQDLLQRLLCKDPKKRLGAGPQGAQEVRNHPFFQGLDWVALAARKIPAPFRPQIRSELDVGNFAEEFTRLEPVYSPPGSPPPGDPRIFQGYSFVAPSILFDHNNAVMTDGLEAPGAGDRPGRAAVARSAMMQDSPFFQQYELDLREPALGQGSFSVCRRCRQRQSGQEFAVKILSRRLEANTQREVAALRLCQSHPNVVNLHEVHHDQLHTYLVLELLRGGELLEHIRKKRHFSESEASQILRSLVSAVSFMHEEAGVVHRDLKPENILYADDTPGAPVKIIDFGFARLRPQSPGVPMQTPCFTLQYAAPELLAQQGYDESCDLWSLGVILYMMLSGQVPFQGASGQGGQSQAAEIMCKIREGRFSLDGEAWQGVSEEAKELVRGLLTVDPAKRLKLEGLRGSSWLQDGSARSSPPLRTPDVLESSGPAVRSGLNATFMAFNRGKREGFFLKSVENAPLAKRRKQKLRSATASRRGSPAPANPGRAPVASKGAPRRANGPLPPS

COc1cc(N(C)c2ccnc3ccc(C(F)(F)F)cc23)cc(OC)c1OC gave a % binding [1] of 96%.

With Cc1ccc(-c2ccc3c(ccc4sc5c(c43)NC[C@@H](C)NC5=O)n2)cn1 the % of inhibition [2] was 1%.

For C=CC(=O)Nc1ccc(C(=O)Nc2[nH]nc3c2CN(C(=O)N[C@H](CN(C)C)c2ccccc2)C3(C)C)cc1, the % of engagement [3] was -6.3%.

Cc1cc([C@@H](C)Nc2ccccc2C(=O)O)c2nc(N3CCOCC3)cc(=O)n2c1 [AZD-6482] showed a % of control [4] of 54%.

With CC[C@@H]1[C@H](F)C(=O)N[C@@H]1COc1nccc2cc(C(N)=O)c(OC)cc12 [ZIMLOVISERTIB] the % of inhibition [5] was 0% and the % of inhibition [6] was -11.5%.

Cc1cc(F)c(C(=O)Nc2cccc(-c3nncn3C(C)C)n2)cc1-n1cnc(C2CC2)c1 showed a % of control [7] of 100%.

Compound CN1Cc2nccc(-c3cn(C)nc3-c3ccc(F)cc3)c2C1=O has a % of inhibition [8] of -3% and a % of inhibition [9] of 10%.

CN(C)C/C=C/C(=O)Nc1ccc(C(=O)N2CCCC(Nc3ncc(Cl)c(-c4c[nH]c5ccccc45)n3)C2)cc1 (configuration not stated) gave a % of control (Misshapen-like kinase 1) of 89%.

With CNCCN1CCC(c2cc(CN(C)C(=O)c3cccc(Oc4ccccc4)c3)ccn2)CC1 the % activity [10] was > 90%.

In the case of N#Cc1cccc(-c2c[nH]c3ncnc(N4CCOCC4)c23)c1, the % of inhibition [11] is reported as 60%.
